Where only a bound is given, the exact number is not on record here.

One data set has as its system Apis mellifera. The note with it: acute, duration: 48 hours, mortality.
For another data set, the system named is Pimephales promelas. The note with it: chronic/long-term, duration: 33 days.
A further data set deals with Cyprinus carpio. The note with it: acute; duration: 96 hours; mortality.
The next data set concerns Neomysis kadiakensis. The note with it: chronic/long-term; duration: 28 days; reproduction.
The subject of another data set is Daphnia magna. The note with it: chronic/long-term; duration: 21 days; reproduction.
In the next data set the test system is Hypoaspis aculeifer. The note with it: chronic/long-term; duration: 14 days; reproduction.
For the next data set, the system named is Oncorhynchus mykiss. The note with it: acute; duration: 96 hours; mortality.
In another data set the test system is Tagia sp. The note with it: chronic/long-term; duration: 56 days; reproduction.
The mark [1] stands for this setting: chronic, duration: 2 years, histopathology: neoplastic.

As usually defined, the LC50 is the concentration that kills 50% of the test population. A higher LC50 goes with lower toxicity. What is called NOAEL is the highest dose or exposure tested at which no adverse effect was seen. Take `COc1c(Cl)ccc(-c2nc(C(=O)OCc3ccccc3)c(Cl)c(N)c2F)c1F` [Florpyrauxifen-benzyl]: the LD50 in the data set on Colinus virginianus (acute, oral, mortality) was > 2250 mg/kg-day; in the data set on Apis mellifera (dermal) it was > 100 µg/piece; in the data set on Apis mellifera (oral, unspecified), > 105 µg/piece; with Rattus norvegicus (acute, oral, mortality) it was > 5000 mg/kg-day. This molecule also returned an NOEL with Colinus virginianus (reproduction developmental) of 87.2 mg/kg-day. The NOEC in the data set on Pimephales promelas (development) came to 0.037 mg/L; with Neomysis kadiakensis it was 0.0078 mg/L. Moreover, the LC50 in the data set with Cyprinus carpio was > 0.0414 mg/L. Further, the NOAEL was 50 mg/kg-day with Rattus norvegicus (setting [1]) and 300 mg/kg-day in the data set with Rattus norvegicus (reproduction developmental, no effects).
`COc1c(Cl)ccc(-c2nc(C(=O)O)c(Cl)c(N)c2F)c1F` [Florpyrauxifen]: the NOEC with Daphnia magna was found to be 25 mg/L; in the data set with Hypoaspis aculeifer, 25 mg/kg; in the data set on Pimephales promelas (other), 29.8 mg/L; in the data set with Tagia sp. it was 213 mg/kg. The LC50 with Oncorhynchus mykiss is > 100 mg/L. The molecule also showed a no-observed-adverse-effect level (NOAEL) in the data set on Rattus norvegicus (setting [1]) of 50 mg/kg-day.

For the origin of these results see EPA's ToxValDB 9.5 (doi:10.2903/j.efsa.2018.5378).
